{"source": "ChEMBL document CHEMBL1201862", "about": "“PubChem BioAssay data set” (2004)", "assay_in_all_cases": "DTP human tumour cell line panel, 48 h", "key": {"[1]": {"system": "KM12"}, "[2]": {"system": "MCF7"}, "[3]": {"system": "CAKI-1"}, "[4]": {"system": "A549"}, "[5]": {"system": "SNB-75"}, "[6]": {"system": "UO-31"}, "[7]": {"system": "HCT-116"}, "[8]": {"system": "OVCAR-3"}, "[9]": {"system": "SN12C"}, "[10]": {"system": "NCI-H23"}, "[11]": {"system": "NCI-H522"}, "[12]": {"system": "ACHN"}, "[13]": {"system": "CCRF-CEM"}, "[14]": {"system": "HT-29"}, "[15]": {"system": "MDA-N"}, "[16]": {"system": "786-0"}, "[17]": {"system": "UACC-62"}, "[18]": {"system": "Malme-3M"}, "[19]": {"system": "NCI-H226"}, "[20]": {"system": "EKVX"}, "[21]": {"system": "A498"}, "[22]": {"system": "RXF 393"}, "[23]": {"system": "HCC 2998"}, "[24]": {"system": "U-251"}, "[25]": {"system": "OVCAR-8"}, "[26]": {"system": "M14"}, "[27]": {"system": "SK-MEL-2"}, "[28]": {"system": "DU-145"}, "[29]": {"system": "COLO 205"}, "[30]": {"system": "MDA-MB-231"}, "[31]": {"system": "SK-OV-3"}, "[32]": {"system": "BT-549"}, "[33]": {"system": "MOLT-4"}, "[34]": {"system": "K562"}, "[35]": {"system": "NCI-H460"}, "[36]": {"system": "PC-3"}, "[37]": {"system": "Hs-578T"}, "[38]": {"system": "SNB-19"}, "[39]": {"system": "SF-539"}, "[40]": {"system": "SK-MEL-5"}, "[41]": {"system": "SF-295"}, "[42]": {"system": "OVCAR-4"}, "[43]": {"system": "MDA-MB-435"}, "[44]": {"system": "HCT-15"}, "[45]": {"system": "NCI/ADR-RES"}, "[46]": {"system": "T47D"}, "[47]": {"system": "OVCAR-5"}, "[48]": {"system": "TK-10"}, "[49]": {"system": "IGROV-1"}, "[50]": {"system": "UACC-257"}, "[51]": {"system": "HOP-62"}, "[52]": {"system": "SF-268"}, "[53]": {"system": "RPMI-8226"}, "[54]": {"system": "HOP-92"}, "[55]": {"system": "SK-MEL-28"}, "[56]": {"system": "SW-620"}, "[57]": {"system": "LOX IMVI"}, "[58]": {"system": "HL-60"}}, "note": "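Assay format: 96-well plates, 48-hour exposure. The concentration for 50% growth inhibition is given as GI50.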 Activity calls are given as the source filed them. Cut-off read from the data, not from the text of the source: active = GI50 up to about 1.1 µM and inactive = higher.", "data": [{"smiles": "c1ccc(-c2cc(-c3cc(-c4ccccc4)n(-c4ccccc4)n3)nn2-c2ccccc2)cc1", "values": [{"measurement": "GI50", "setting": "[1]", "value": "> 100 µM (inactive)"}, {"measurement": "GI50", "setting": "[2]", "value": "> 100 µM (inactive)"}, {"measurement": "GI50", "setting": "[3]", "value": "> 100 µM (inactive)"}, {"measurement": "GI50", "setting": "[4]", "value": "> 100 µM (inactive)"}, {"measurement": "GI50", "setting": "[5]", "value": "56.9 µM (inactive)"}, {"measurement": "GI50", "setting": "[6]", "value": "> 100 µM (inactive)"}, {"measurement": "GI50", "setting": "[7]", "value": "> 100 µM (inactive)"}, {"measurement": "GI50", "setting": "[8]", "value": "> 100 µM (inactive)"}, {"measurement": "GI50", "setting": "[9]", "value": "> 100 µM (inactive)"}, {"measurement": "GI50", "setting": "[10]", "value": "> 100 µM (inactive)"}, {"measurement": "GI50", "setting": "[11]", "value": "> 100 µM (inactive)"}, {"measurement": "GI50", "setting": "[12]", "value": "> 100 µM (inactive)"}, {"measurement": "GI50", "setting": "[13]", "value": "> 100 µM (inactive)"}, {"measurement": "GI50", "setting": "[14]", "value": "> 100 µM (inactive)"}, {"measurement": "GI50", "setting": "[15]", "value": "> 100 µM (inactive)"}, {"measurement": "GI50", "setting": "[16]", "value": "78.5 µM (inactive)"}, {"measurement": "GI50", "setting": "[17]", "value": "> 100 µM (inactive)"}, {"measurement": "GI50", "setting": "[18]", "value": "> 100 µM (inactive)"}, {"measurement": "GI50", "setting": "[19]", "value": "> 100 µM (inactive)"}, {"measurement": "GI50", "setting": "[20]", "value": "> 100 µM (inactive)"}, {"measurement": "GI50", "setting": "[21]", "value": "> 100 µM (inactive)"}, {"measurement": "GI50", "setting": "[22]", "value": "> 100 µM (inactive)"}, {"measurement": "GI50", "setting": "[23]", "value": "> 100 µM (inactive)"}, {"measurement": "GI50", "setting": "[24]", "value": "> 100 µM (inactive)"}, {"measurement": "GI50", "setting": "[25]", "value": "> 100 µM (inactive)"}, {"measurement": "GI50", "setting": "[26]", "value": "> 100 µM (inactive)"}, {"measurement": "GI50", "setting": "[27]", "value": "> 100 µM (inactive)"}, {"measurement": "GI50", "setting": "[28]", "value": "> 100 µM (inactive)"}, {"measurement": "GI50", "setting": "[29]", "value": "> 100 µM (inactive)"}, {"measurement": "GI50", "setting": "[30]", "value": "> 100 µM (inactive)"}, {"measurement": "GI50", "setting": "[31]", "value": "> 100 µM (inactive)"}, {"measurement": "GI50", "setting": "[32]", "value": "> 100 µM (inactive)"}, {"measurement": "GI50", "setting": "[33]", "value": "> 100 µM (inactive)"}, {"measurement": "GI50", "setting": "[34]", "value": "> 100 µM (inactive)"}, {"measurement": "GI50", "setting": "[35]", "value": "> 100 µM (inactive)"}, {"measurement": "GI50", "setting": "[36]", "value": "> 100 µM (inactive)"}, {"measurement": "GI50", "setting": "[37]", "value": "52 µM (inactive)"}, {"measurement": "GI50", "setting": "[38]", "value": "> 100 µM (inactive)"}, {"measurement": "GI50", "setting": "[39]", "value": "> 100 µM (inactive)"}, {"measurement": "GI50", "setting": "[40]", "value": "> 100 µM (inactive)"}, {"measurement": "GI50", "setting": "[41]", "value": "> 100 µM (inactive)"}, {"measurement": "GI50", "setting": "[42]", "value": "94.8 µM (inactive)"}, {"measurement": "GI50", "setting": "[43]", "value": "> 100 µM (inactive)"}, {"measurement": "GI50", "setting": "[44]", "value": "> 100", "unit": "µM"}, {"measurement": "GI50", "setting": "[45]", "value": "> 100 µM (inactive)"}, {"measurement": "GI50", "setting": "[46]", "value": "> 100 µM (inactive)"}, {"measurement": "GI50", "setting": "[47]", "value": "> 100 µM (inactive)"}, {"measurement": "GI50", "setting": "[48]", "value": "> 100 µM (inactive)"}, {"measurement": "GI50", "setting": "[49]", "value": "> 100 µM (inactive)"}, {"measurement": "GI50", "setting": "[50]", "value": "> 100 µM (inactive)"}, {"measurement": "GI50", "setting": "[51]", "value": "35.7 µM (inactive)"}, {"measurement": "GI50", "setting": "[52]", "value": "> 100 µM (inactive)"}]}, {"smiles": "CC(C)=CCC/C(C)=C/CC/C(C)=C/CSc1ccc(Cl)cc1C(=O)O", "values": [{"measurement": "GI50", "setting": "[1]", "value": "17 µM (inactive)"}, {"measurement": "GI50", "setting": "[2]", "value": "17.3 µM (inactive)"}, {"measurement": "GI50", "setting": "[53]", "value": "22.6 µM (inactive)"}, {"measurement": "GI50", "setting": "[54]", "value": "22.2 µM (inactive)"}, {"measurement": "GI50", "setting": "[3]", "value": "25.1 µM (inactive)"}, {"measurement": "GI50", "setting": "[4]", "value": "16.5 µM (inactive)"}, {"measurement": "GI50", "setting": "[5]", "value": "18.7 µM (inactive)"}, {"measurement": "GI50", "setting": "[6]", "value": "17.5 µM (inactive)"}, {"measurement": "GI50", "setting": "[7]", "value": "17.8 µM (inactive)"}, {"measurement": "GI50", "setting": "[8]", "value": "17 µM (inactive)"}, {"measurement": "GI50", "setting": "[9]", "value": "26.3 µM (inactive)"}, {"measurement": "GI50", "setting": "[10]", "value": "17.7 µM (inactive)"}, {"measurement": "GI50", "setting": "[55]", "value": "17.3 µM (inactive)"}, {"measurement": "GI50", "setting": "[12]", "value": "18.5 µM (inactive)"}, {"measurement": "GI50", "setting": "[13]", "value": "21.2 µM (inactive)"}, {"measurement": "GI50", "setting": "[14]", "value": "21.1 µM (inactive)"}, {"measurement": "GI50", "setting": "[15]", "value": "29.4 µM (inactive)"}, {"measurement": "GI50", "setting": "[16]", "value": "17.1 µM (inactive)"}, {"measurement": "GI50", "setting": "[17]", "value": "17.9 µM (inactive)"}, {"measurement": "GI50", "setting": "[18]", "value": "19.2 µM (inactive)"}, {"measurement": "GI50", "setting": "[19]", "value": "17.4 µM (inactive)"}, {"measurement": "GI50", "setting": "[20]", "value": "18.6 µM (inactive)"}, {"measurement": "GI50", "setting": "[21]", "value": "19.8 µM (inactive)"}, {"measurement": "GI50", "setting": "[22]", "value": "24.3 µM (inactive)"}, {"measurement": "GI50", "setting": "[23]", "value": "20.5 µM (inactive)"}, {"measurement": "GI50", "setting": "[24]", "value": "17.5 µM (inactive)"}, {"measurement": "GI50", "setting": "[25]", "value": "20 µM (inactive)"}, {"measurement": "GI50", "setting": "[26]", "value": "19.6 µM (inactive)"}, {"measurement": "GI50", "setting": "[56]", "value": "22 µM (inactive)"}, {"measurement": "GI50", "setting": "[27]", "value": "15 µM (inactive)"}, {"measurement": "GI50", "setting": "[28]", "value": "23.9 µM (inactive)"}, {"measurement": "GI50", "setting": "[29]", "value": "22.4 µM (inactive)"}, {"measurement": "GI50", "setting": "[30]", "value": "27 µM (inactive)"}, {"measurement": "GI50", "setting": "[31]", "value": "17.3 µM (inactive)"}, {"measurement": "GI50", "setting": "[32]", "value": "20.2 µM (inactive)"}, {"measurement": "GI50", "setting": "[33]", "value": "23.1 µM (inactive)"}, {"measurement": "GI50", "setting": "[34]", "value": "25.5 µM (inactive)"}, {"measurement": "GI50", "setting": "[35]", "value": "18.7 µM (inactive)"}, {"measurement": "GI50", "setting": "[57]", "value": "18.1 µM (inactive)"}, {"measurement": "GI50", "setting": "[36]", "value": "16.2 µM (inactive)"}, {"measurement": "GI50", "setting": "[37]", "value": "23.2 µM (inactive)"}, {"measurement": "GI50", "setting": "[38]", "value": "18.4 µM (inactive)"}, {"measurement": "GI50", "setting": "[39]", "value": "18.9 µM (inactive)"}, {"measurement": "GI50", "setting": "[40]", "value": "23.4 µM (inactive)"}, {"measurement": "GI50", "setting": "[41]", "value": "17.4 µM (inactive)"}, {"measurement": "GI50", "setting": "[42]", "value": "27.7 µM (inactive)"}, {"measurement": "GI50", "setting": "[43]", "value": "20.2 µM (inactive)"}, {"measurement": "GI50", "setting": "[44]", "value": 20.4, "unit": "µM"}, {"measurement": "GI50", "setting": "[45]", "value": "> 10 µM (inactive)"}, {"measurement": "GI50", "setting": "[46]", "value": "> 10 µM (inactive)"}, {"measurement": "GI50", "setting": "[47]", "value": "18.9 µM (inactive)"}, {"measurement": "GI50", "setting": "[48]", "value": "19.2 µM (inactive)"}, {"measurement": "GI50", "setting": "[49]", "value": "17.5 µM (inactive)"}, {"measurement": "GI50", "setting": "[50]", "value": "27.8 µM (inactive)"}, {"measurement": "GI50", "setting": "[58]", "value": "22.2 µM (inactive)"}, {"measurement": "GI50", "setting": "[51]", "value": "14.9 µM (inactive)"}, {"measurement": "GI50", "setting": "[52]", "value": "17.9 µM (inactive)"}]}]}
